# Results: patent US9334475B2, “Method for inducing erythropoietin-producing cell” (Kyoto University, priority 2012, dated 2016)
# Key:
# [1] = system: EPO-producing cells induced to differentiate from human iPS cells; test: ELISA of extracellular EPO secretion by EPO-producing cells at various IGF-1 concentrations; format: cell-based
# Procedure: (§1) Human iPS cells (201B6, 201B7, and 253G4) were obtained from Professor Yamanaka of Kyoto University, and cultured in accordance with a conventional method (Takahashi K, et al. Cell. 131: pp. 861 to 872). Using SNL cells (McMahon, A. P. and Bradley, A. (1990) Cell 62; pp. 1073 to 1085) as feeder cells, the iPS cells were cultured to 80 to 90% confluency on a 6 cm dish. The cells were then detached by adding a CTK solution and the feeder cells were removed, and 1 mL of Accutase™ was added to dissociate the iPS cells into single cells.
# (§2) Subsequently, the iPS cells were suspended in an RPMI medium containing 10 μM Y-27632, 2% B27, and penicillin/streptomycin and then seeded in a Matrigel-coated 24-well plate at 250,000 cells/well. After adding 100 ng/mL Activin and 1 μM CHIR99021, the volume of medium was adjusted to 0.5 mL/well, and the cells were cultured for six days (Step 1). At this time, on Day 2, 0.5 mM NaB was added to the medium (without medium exchange), and on Day 3, the medium was exchanged for a medium containing 100 ng/mL A ctivin, 1 μM CHIR99021, and 0.5 mM NaB, and on Day 5, the medium was exchanged for a medium containing 100 ng/mL Activin and 1 μM CHIR99021.
# After six days of culture, the medium was replaced by a DMEM medium containing 1% DMSO, 50 ng/mL IGF-1, 20% KSR, 2 mM L-glutamine, nonessential amino acid (NEAA), 100 μM β-ME (2-mercaptoethanol), 50 mU/L penicillin, and 50 μg/L streptomycin, and the cells were cultured for a certain period of days (Step 2). During cell culture, the medium was exchanged every other day.
# Subsequently, ELISA was performed to study whether the EPO protein expressed was secreted out of the cells. As a result, EPO protein was confirmed outside the cells. […] Further, as a result of studying the amount of IGF-1 added and the number of days of culture, the highest amount of EPO secretion was observed when the cells were cultured for 10 days at 50 ng/mL (FIG. 6). […]
# [2] = system: EPO-producing cells induced to differentiate from human iPS cells; test: EPO production-promoting ability in Step 2 of differentiation of human iPS cells; format: cell-based; settings: Step 2, compared with IGF-2 (FIG. 4)
# Procedure: as §1
# as §2, with “CHIR99021. […]” for “CHIR99021.”
# In Step 2, the cells were analyzed after 18 days of culture. […]
substance,measurement,setting,value
IGF-1: IGF family gene product used as a growth factor in the Step 2 medium,days of culture in Step 2 giving the highest amount of EPO secretion,[1]; IGF-1 at 50 ng/mL (FIG. 6),10 days
same,change in EPO secretion over time,"[1]; IGF-1 at 100 ng/mL, Step 2 (FIG. 6)",an increasing trend of EPO secretion was confirmed up to Day 12
same,concentration of IGF-1 added that increased the amount of extracellular secretion of EPO,"[1]; Step 2, ELISA, Day 8 cells (FIG. 5)",≥ 1 ng/mL
same,EPO production-promoting ability,[2],promote EPO production more potently than IGF-2
